Experiment [1] addresses T1, Beta-galactosidase (Bos taurus) (UniProt Q58D55).
T1 sequence (whole entry): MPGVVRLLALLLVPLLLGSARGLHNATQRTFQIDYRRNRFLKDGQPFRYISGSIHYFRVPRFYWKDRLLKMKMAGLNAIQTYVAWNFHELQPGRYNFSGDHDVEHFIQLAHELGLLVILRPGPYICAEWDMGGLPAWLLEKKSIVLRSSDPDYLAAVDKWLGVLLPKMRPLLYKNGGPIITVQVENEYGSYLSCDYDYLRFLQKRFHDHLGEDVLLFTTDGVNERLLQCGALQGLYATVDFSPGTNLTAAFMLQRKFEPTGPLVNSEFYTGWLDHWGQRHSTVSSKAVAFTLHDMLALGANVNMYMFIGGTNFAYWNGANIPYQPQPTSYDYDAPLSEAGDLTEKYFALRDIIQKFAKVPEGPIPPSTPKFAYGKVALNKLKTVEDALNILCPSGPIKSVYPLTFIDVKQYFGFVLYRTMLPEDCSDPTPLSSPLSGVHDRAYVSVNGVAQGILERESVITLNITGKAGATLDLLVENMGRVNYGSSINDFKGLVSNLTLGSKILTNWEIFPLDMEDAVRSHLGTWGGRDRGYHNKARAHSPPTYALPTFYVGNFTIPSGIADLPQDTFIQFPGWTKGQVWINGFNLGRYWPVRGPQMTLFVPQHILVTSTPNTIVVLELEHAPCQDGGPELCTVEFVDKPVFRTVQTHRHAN
Put plainly: Inhibition of bovine liver beta-galactosidase at 0.1 mM using p-nitrophenyl glycopyranoside as substrate preincubated for 5 mins followed by substrate addition and measured after 20 mins by visible absorption spectroscopic analysis.

In experiment [2] the target is T2, Alpha-mannosidase (Canavalia ensiformis) (UniProt C0HJB3).
T2 sequence (whole entry): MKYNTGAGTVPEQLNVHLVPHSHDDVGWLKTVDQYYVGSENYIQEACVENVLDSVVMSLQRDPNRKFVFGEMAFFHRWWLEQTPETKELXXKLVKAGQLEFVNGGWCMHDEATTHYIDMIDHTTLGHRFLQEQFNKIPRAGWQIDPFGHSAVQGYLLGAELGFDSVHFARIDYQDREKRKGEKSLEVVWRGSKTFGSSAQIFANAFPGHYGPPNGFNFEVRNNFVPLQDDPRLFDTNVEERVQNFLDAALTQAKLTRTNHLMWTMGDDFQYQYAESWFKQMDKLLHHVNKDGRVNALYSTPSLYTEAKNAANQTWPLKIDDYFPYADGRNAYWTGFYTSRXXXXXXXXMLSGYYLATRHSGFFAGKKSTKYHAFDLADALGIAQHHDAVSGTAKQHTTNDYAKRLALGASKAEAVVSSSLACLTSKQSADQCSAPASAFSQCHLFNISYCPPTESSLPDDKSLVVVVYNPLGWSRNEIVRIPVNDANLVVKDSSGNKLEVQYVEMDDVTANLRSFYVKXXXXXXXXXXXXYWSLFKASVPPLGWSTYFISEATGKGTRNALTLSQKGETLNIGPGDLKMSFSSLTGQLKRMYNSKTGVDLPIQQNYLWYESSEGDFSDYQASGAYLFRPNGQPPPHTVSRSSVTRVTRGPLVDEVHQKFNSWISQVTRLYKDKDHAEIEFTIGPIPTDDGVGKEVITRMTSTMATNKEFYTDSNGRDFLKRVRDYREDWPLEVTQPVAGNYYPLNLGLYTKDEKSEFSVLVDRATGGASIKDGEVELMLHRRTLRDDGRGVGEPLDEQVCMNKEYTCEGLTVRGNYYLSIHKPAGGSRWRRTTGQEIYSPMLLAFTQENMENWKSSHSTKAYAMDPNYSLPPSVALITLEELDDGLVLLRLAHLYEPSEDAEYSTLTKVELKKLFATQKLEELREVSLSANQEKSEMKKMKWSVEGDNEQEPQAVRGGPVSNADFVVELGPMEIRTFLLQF
Put plainly: Inhibition of jack beans alpha-mannosidase at 0.1 mM using p-nitrophenyl glycopyranoside as substrate preincubated for 5 mins followed by substrate addition and measured after 20 mins by visible absorption spectroscopic analysis.

The species entered for experiment [3] is Bos taurus. The experiment can be described thus: Inhibition of bovine kidney alpha-fucosidase at 0.120 uM using p-nitrophenyl glycopyranoside as substrate preincubated for 5 mins followed by substrate addition and measured after 20 mins by visible absorption spectroscopic analysis.
The subject of a further experiment is Oryza sativa. The experiment can be described thus: Inhibition of rice beta-glucosidase at 0.1 mM using p-nitrophenyl glycopyranoside as substrate preincubated for 5 mins followed by substrate addition and measured after 20 mins by visible absorption spectroscopic analysis.
The next experiment has as its system Aspergillus niger. The experiment can be described thus: Inhibition of Aspergillus niger amyloglucosidase at 0.1 mM using p-nitrophenyl glycopyranoside as substrate preincubated for 5 mins followed by substrate addition and measured after 20 mins by visible absorption spectroscopic analysis.
For experiment [4], the species on record is Bos taurus. The experiment can be described thus: Inhibition of bovine kidney alpha-fucosidase at 0.120 uM using p-nitrophenyl glycopyranoside as substrate preincubated for 5 mins followed by substrate addition and measured after 20 mins by visible absorption spectroscopic analysis relative to control.
Experiment [5] can be described thus: Competitive inhibition of bovine kidney alpha-fucosidase using p-nitrophenyl glycopyranoside as substrate preincubated for 5 mins followed by substrate addition and measured after 20 mins by Dixon plot analysis. Set-up: species or system Bos taurus.
A short description of experiment [6]: Inhibition of bovine kidney alpha-fucosidase using p-nitrophenyl glycopyranoside as substrate preincubated for 5 mins followed by substrate addition and measured after 20 mins by visible absorption spectroscopic analysis. The arrangement: species or system Bos taurus.
The test system of the next experiment is Saccharomyces cerevisiae. The experiment can be described thus: Inhibition of Saccharomyces cerevisiae alpha-glucosidase at 0.1 mM using p-nitrophenyl glycopyranoside as substrate preincubated for 5 mins followed by substrate addition and measured after 20 mins by visible absorption spectroscopic analysis.
For the next experiment, the system named is Prunus dulcis. Put plainly: Inhibition of almond beta-glucosidase at 0.1 mM using p-nitrophenyl glycopyranoside as substrate preincubated for 5 mins followed by substrate addition and measured after 20 mins by visible absorption spectroscopic analysis.
The next experiment relates to Canavalia ensiformis. The experiment can be described thus: Inhibition of jack beans beta-N-acetylglucosaminidase at 0.1 mM using p-nitrophenyl glycopyranoside as substrate preincubated for 5 mins followed by substrate addition and measured after 20 mins by visible absorption spectroscopic analysis.
For experiment [7], the target named is Alpha-galactosidase (Coffea arabica) (UniProt Q42656). The experiment can be described thus: Inhibition of coffee beans alpha-galactosidase at 0.1 mM using p-nitrophenyl glycopyranoside as substrate preincubated for 5 mins followed by substrate addition and measured after 20 mins by visible absorption spectroscopic analysis.
Chain of Alpha-galactosidase (Coffea arabica) (Q42656 16-378 limits assumed): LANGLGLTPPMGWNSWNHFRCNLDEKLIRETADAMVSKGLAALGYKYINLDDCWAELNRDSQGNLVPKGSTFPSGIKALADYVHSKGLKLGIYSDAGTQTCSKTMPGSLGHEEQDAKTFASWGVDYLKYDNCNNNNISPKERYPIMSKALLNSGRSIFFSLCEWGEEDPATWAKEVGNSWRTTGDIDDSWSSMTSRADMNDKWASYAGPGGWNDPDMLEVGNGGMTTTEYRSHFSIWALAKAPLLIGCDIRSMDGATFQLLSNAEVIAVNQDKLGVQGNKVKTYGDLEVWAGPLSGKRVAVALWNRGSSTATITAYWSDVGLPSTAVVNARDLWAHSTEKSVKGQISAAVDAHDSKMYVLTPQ
Experiment [8] can be described thus: Inhibition of human alpha-fucosidase using p-nitrophenyl glycopyranoside as substrate preincubated for 5 mins followed by substrate addition and measured after 20 mins by visible absorption spectroscopic analysis.
The nature of experiment [9]: Competitive inhibition of human alpha-fucosidase using p-nitrophenyl glycopyranoside as substrate preincubated for 5 mins followed by substrate addition and measured after 20 mins by Dixon plot analysis.
Experiment [10] in a line: Uncompetitive inhibition of bovine kidney alpha-fucosidase using p-nitrophenyl glycopyranoside as substrate preincubated for 5 mins followed by substrate addition and measured after 20 mins by Cornish-Bowden plot analysis. Set-up: species or system Bos taurus.
For another experiment, the system named is Cornu aspersum. The experiment can be described thus: Inhibition of snail beta-mannosidase at 0.1 mM using p-nitrophenyl glycopyranoside as substrate preincubated for 5 mins followed by substrate addition and measured after 20 mins by visible absorption spectroscopic analysis.
Experiment [11] can be described thus: Uncompetitive inhibition of human alpha-fucosidase using p-nitrophenyl glycopyranoside as substrate preincubated for 5 mins followed by substrate addition and measured after 20 mins by Cornish-Bowden plot analysis.
The species named for experiment [12] is Bos taurus. Put plainly: Inhibition of bovine kidney alpha-fucosidase at 5 uM using p-nitrophenyl glycopyranoside as substrate preincubated for 5 mins followed by substrate addition and measured after 20 mins by visible absorption spectroscopic analysis relative to control.
In experiment [13] the target is T3, Beta-galactosidase (Bos taurus, UniProt Q58D55).
T3 sequence (Q58D55 whole entry): T1 sequence (whole entry)
The experiment can be described thus: Competitive inhibition of bovine liver beta-galactosidase using p-nitrophenyl glycopyranoside as substrate preincubated for 5 mins followed by substrate addition and measured after 20 mins by Lineweaver-Burk plot analysis.

For experiment [14], the species on record is Bos taurus. Put plainly: (§1) Inhibition of bovine kidney alpha-fucosidase at 0.1 mM using p-nitrophenyl glycopyranoside as substrate preincubated for 5 mins followed by substrate addition and measured after 20 mins by visible absorption spectroscopic analysis relative to control.
A further experiment is filed under the species Homo sapiens. Put plainly: Inhibition of human alpha-fucosidase at 0.1 mM using p-nitrophenyl glycopyranoside as substrate preincubated for 5 mins followed by substrate addition and measured after 20 mins by visible absorption spectroscopic analysis.
Experiment [15] concerns the target T1, Beta-galactosidase (Bos taurus). Put plainly: Inhibition of bovine liver beta-galactosidase at 200 uM using p-nitrophenyl glycopyranoside as substrate preincubated for 5 mins followed by substrate addition and measured after 20 mins by visible absorption spectroscopic analysis relative to control.
Experiment [16] concerns the target T3, Beta-galactosidase. The experiment can be described thus: Inhibition of bovine liver beta-galactosidase using p-nitrophenyl glycopyranoside as substrate preincubated for 5 mins followed by substrate addition and measured after 20 mins by visible absorption spectroscopic analysis.
Experiment [17] can be described thus: as §1. Set-up: species or system Bos taurus.

The values below come from ChEMBL document CHEMBL4270512, “Harnessing pyrrolidine iminosugars into dimeric structures for the rapid discovery of divalent glycosidase inhibitors” (Eur J Med Chem, 2018).

Active and inactive are the calls of the source. The rule behind the calls is not given here.

A word on the inhibition: it is the percentage by which the read-out fell short of the control. One may read the Ki as the dissociation constant of the complex between target and ligand, obtained from inhibition or displacement. Low values mean tighter binding, high ones weaker binding. Usually IC50 stands for the midpoint of a concentration-inhibition curve.

In the case of `C[C@@H]1N[C@@H](c2cn(-c3ccc(S(=O)(=O)c4ccc(-n5cc([C@@H]6N[C@@H](C)[C@@H](O)[C@H]6O)nn5)cc4)cc3)nn2)[C@H](O)[C@@H]1O`, the inhibition result (in [1]; in experiment [2]; with Oryza sativa; with Aspergillus niger; in the experiment with Saccharomyces cerevisiae; in the experiment with Prunus dulcis) was “inactive” each time. In addition, the inhibition result (in the experiment with Canavalia ensiformis; in experiment [7]; in the experiment with Cornu aspersum) was “inactive” in each case. Further, the inhibition entry in the experiment filed under Bos taurus [3] is “Active”. For the same compound, the inhibition in the experiment listed under Bos taurus [4] was found to be 96%; in the experiment listed under Bos taurus [12], 91%. Moreover, the Ki is 0.00015 µM in experiment [5], 0.06 µM in experiment [9], 0.00052 µM in experiment [10] and 0.15 µM in experiment [11]. In addition, the figures for the IC50 in experiment [6] and in [8] were 0.00048 µM and 0.21 µM, respectively.
For `Cc1oc([C@H]2NC[C@@H](O)[C@H]2O)cc1C(=O)NCc1cn(CCCCCCCCCCCCn2cc(CNC(=O)c3cc([C@H]4NC[C@@H](O)[C@H]4O)oc3C)nn2)nn1`, on Beta-galactosidase [13], the Ki worked out at 5.8 µM. The inhibition result (in [2]; in the experiment on Oryza sativa; in the experiment on Aspergillus niger; in the experiment listed under Homo sapiens; with Saccharomyces cerevisiae; in the experiment with Prunus dulcis) was “inactive” each time. Further, the inhibition entry (in the experiment on Canavalia ensiformis; in experiment [7]; in the experiment on Cornu aspersum) was “inactive” in each case. Moreover, the inhibition in the experiment filed under Bos taurus [14] was 32%; in experiment [15], 88%. Also, the IC50 against Beta-galactosidase [16] was determined as 9.6 µM.
`CCCCCCn1cc(CNC(=O)c2cc([C@H]3NC[C@@H](O)[C@H]3O)oc2C)nn1` yielded a Ki on Beta-galactosidase [13] of 58 µM. The inhibition entry (in experiment [2]; in the experiment on Oryza sativa; in the experiment on Aspergillus niger; in the experiment listed under Homo sapiens; in the experiment with Saccharomyces cerevisiae; in the experiment on Prunus dulcis) was “inactive” throughout. In addition, the inhibition result (in the experiment with Canavalia ensiformis; in [7]; in the experiment with Cornu aspersum) was “inactive” each time. For the same compound, the IC50 in experiment [17] stood at 37 µM; on Beta-galactosidase [16], 94 µM.
